Key:
Type in all cases: in vivo
[1] = test system: Italian ryegrass (Lolium multiflorum); assay: Test A preemergence, visual injury rating
Procedure, shortened: (§1)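 Visual 0–100 rating (100 = complete control) taken about 10 d post-treatment relative to untreated checks. Preemergence: directed soil spray on sown loam/sand pots. Postemergence: seedlings 2–10 cm, 1–2 leaf. Non-phytotoxic solvent formulation with surfactant.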

[2] = test system: barnyardgrass (Echinochloa crus-galli); assay: Test A preemergence, visual injury rating
Procedure, shortened: as §1

[3] = test system: giant foxtail (Setaria faberii); assay: Test A preemergence, visual injury rating
Procedure, shortened: as §1

[4] = test system: kochia (Kochia scoparia); assay: Test A preemergence, visual injury rating
Procedure, shortened: as §1

[5] = test system: pigweed (Amaranthus retroflexus); assay: Test A preemergence, visual injury rating
Procedure, shortened: as §1

[6] = test system: ragweed (common ragweed, Ambrosia elatior); assay: Test A preemergence, visual injury rating
Procedure, shortened: as §1

[7] = test system: Italian ryegrass (Lolium multiflorum); assay: Test A postemergence, visual injury rating; settings: 0 is no effect, 100 is complete control; for Ryegrass, Italian plant response rating: 0 to 100 scale, approximately 10 days
Procedure, shortened: as §1

[8] = test system: barnyardgrass (Echinochloa crus-galli); assay: Test A postemergence, visual injury rating; settings: 0 is no effect, 100 is complete control; for Barnyardgrass plant response rating: 0 to 100 scale, approximately 10 days
Procedure, shortened: as §1

[9] = test system: blackgrass (Alopecurus myosuroides); assay: Test A postemergence, visual injury rating; settings: 0 is no effect, 100 is complete control; for Blackgrass plant response rating: 0 to 100 scale, approximately 10 days
Procedure, shortened: as §1

[10] = test system: corn (Zea mays); assay: Test A postemergence, visual injury rating; settings: 0 is no effect, 100 is complete control; for Corn plant response rating: 0 to 100 scale, approximately 10 days
Procedure, shortened: as §1

[11] = test system: galium (catchweed bedstraw, Galium aparine); assay: Test A postemergence, visual injury rating; settings: 0 is no effect, 100 is complete control; for Galium plant response rating: 0 to 100 scale, approximately 10 days
Procedure, shortened: as §1

[12] = test system: giant foxtail (Setaria faberii); assay: Test A postemergence, visual injury rating; settings: 0 is no effect, 100 is complete control; for Foxtail, Giant plant response rating: 0 to 100 scale, approximately 10 days
Procedure, shortened: as §1

[13] = test system: kochia (Kochia scoparia); assay: Test A postemergence, visual injury rating; settings: 0 is no effect, 100 is complete control; for Kochia plant response rating: 0 to 100 scale, approximately 10 days
Procedure, shortened: as §1

[14] = test system: pigweed (Amaranthus retroflexus); assay: Test A postemergence, visual injury rating; settings: 0 is no effect, 100 is complete control; for Pigweed plant response rating: 0 to 100 scale, approximately 10 days
Procedure, shortened: as §1

[15] = test system: ragweed (common ragweed, Ambrosia elatior); assay: Test A postemergence, visual injury rating; settings: 0 is no effect, 100 is complete control; for Ragweed plant response rating: 0 to 100 scale, approximately 10 days
Procedure, shortened: as §1

[16] = test system: wheat (Triticum aestivum); assay: Test A postemergence, visual injury rating; settings: 0 is no effect, 100 is complete control; for Wheat plant response rating: 0 to 100 scale, approximately 10 days
Procedure, shortened: as §1

[17] = test system: barnyardgrass (Echinochloa crus-galli); assay: Test B flooded paddy test, plant response rating; settings: 250 g ai/ha; Flood; scale of 0 to 100 where 0 is no effect and 100 is complete control; 13 to 15 days
Procedure, shortened: (§2)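 Under a constant 3 cm flood, test compounds went directly into the paddy water. Following 13 to 15 days of greenhouse growth, treated species and controls were compared by eye.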

[18] = test system: ducksalad (Heteranthera limosa); assay: Test B flooded paddy test, plant response rating; settings: 250 g ai/ha; Flood; scale of 0 to 100 where 0 is no effect and 100 is complete control; 13 to 15 days
Procedure, shortened: as §2

[19] = test system: rice (Oryza sativa); assay: Test B flooded paddy test, plant response rating; settings: 250 g ai/ha; Flood; scale of 0 to 100 where 0 is no effect and 100 is complete control; 13 to 15 days
Procedure, shortened: as §2

[20] = test system: sedge, umbrella (small-flower umbrella sedge, Cyperus difformis); assay: Test B flooded paddy test, plant response rating; settings: 250 g ai/ha; Flood; scale of 0 to 100 where 0 is no effect and 100 is complete control; 13 to 15 days
Procedure, shortened: as §2

[21] = 125 g ai/ha, 0 to 100 scale (0 no effect, 100 complete control)
[22] = 500 g ai/ha, 0 to 100 scale (0 no effect, 100 complete control)
[23] = 31 g ai/ha, 0 to 100 scale, 0 no effect, 100 complete control

Question: How did the “Ryegrass, Italian plant response rating” value [1, 21] turn out when `CCSC(=O)c1c(Br)cccc1Oc1ncc(Cl)cn1` [Compound 83] was run?
Answer: 0

Question: What about the “Ryegrass, Italian plant response rating” value [1, 22] of the same compound?
Answer: 0

Question: What about the “Barnyardgrass plant response rating” value [2, 21] of the same compound?
Answer: 30

Question: What about the “Barnyardgrass plant response rating” value [2, 22] of the same compound?
Answer: 90

Question: And the “Foxtail, Giant plant response rating” value [3, 21]?
Answer: 90

Question: And the “Foxtail, Giant plant response rating” value [3, 22]?
Answer: 100

Question: And the “Kochia plant response rating” value [4, 21]?
Answer: 0

Question: And the “Kochia plant response rating” value [4, 22]?
Answer: 0

Question: And the “Pigweed plant response rating” value [5, 21]?
Answer: 30

Question: And the “Pigweed plant response rating” value [5, 22]?
Answer: 90

Question: What about the “Ragweed plant response rating” value [6, 21] of the same compound?
Answer: 0

Question: And the “Ragweed plant response rating” value [6, 22]?
Answer: 0

Question: And the “Ryegrass, Italian plant response rating” value ([7]; 125 g ai/ha)?
Answer: 0

Question: And the “Ryegrass, Italian plant response rating (0 to 100 scale)” value ([7]; 500 g ai/ha)?
Answer: 0

Question: What about the “Barnyardgrass plant response rating” value ([8]; 125 g ai/ha) of the same compound?
Answer: 0

Question: What about the “Barnyardgrass plant response rating (0 to 100 scale)” value ([8]; 500 g ai/ha) of the same compound?
Answer: 90

Question: And the “Blackgrass plant response rating” value ([9]; 125 g ai/ha)?
Answer: 0

Question: What about the “Blackgrass plant response rating (0 to 100 scale)” value ([9]; 500 g ai/ha) of the same compound?
Answer: 40

Question: And the “Corn plant response rating” value ([10]; 125 g ai/ha)?
Answer: 20

Question: What about the “Corn plant response rating (0 to 100 scale)” value ([10]; 500 g ai/ha) of the same compound?
Answer: 30

Question: What about the “Galium plant response rating” value ([11]; 125 g ai/ha) of the same compound?
Answer: 30

Question: And the “Galium plant response rating (0 to 100 scale)” value ([11]; 500 g ai/ha)?
Answer: 20

Question: And the “Foxtail, Giant plant response rating” value ([12]; 125 g ai/ha)?
Answer: 0

Question: What about the “Foxtail, Giant plant response rating (0 to 100 scale)” value ([12]; 500 g ai/ha) of the same compound?
Answer: 80

Question: What about the “Kochia plant response rating” value ([13]; 125 g ai/ha) of the same compound?
Answer: 30

Question: What about the “Kochia plant response rating (0 to 100 scale)” value ([13]; 500 g ai/ha) of the same compound?
Answer: 90

Question: And the “Pigweed plant response rating” value ([14]; 125 g ai/ha)?
Answer: 30

Question: What about the “Pigweed plant response rating (0 to 100 scale)” value ([14]; 500 g ai/ha) of the same compound?
Answer: 70

Question: And the “Ragweed plant response rating” value ([15]; 125 g ai/ha)?
Answer: 0

Question: What about the “Ragweed plant response rating (0 to 100 scale)” value ([15]; 500 g ai/ha) of the same compound?
Answer: 0

Question: What about the “Wheat plant response rating” value ([16]; 125 g ai/ha) of the same compound?
Answer: 0

Question: And the “Wheat plant response rating (0 to 100 scale)” value ([16]; 500 g ai/ha)?
Answer: 0

Question: And the “Plant response rating, Barnyardgrass” value [17]?
Answer: 0

Question: What about the “Plant response rating, Ducksalad” value [18] of the same compound?
Answer: 80

Question: What about the “Plant response rating, Rice” value [19] of the same compound?
Answer: 0

Question: What about the “Plant response rating, Sedge, Umbrella” value [20] of the same compound?
Answer: 80

Question: With `O=C(OCCC(F)(F)F)c1c(Oc2ncc(Cl)cn2)cccc1C(F)(F)F` [Compound 113] as the compound, how does the “Plant response rating, Ryegrass, Italian” value [1, 23] read?
Answer: 10

Question: And the “Plant response rating, Ryegrass, Italian” value [1, 21]?
Answer: 40

Question: What about the “Plant response rating, Barnyardgrass” value [2, 23] of the same compound?
Answer: 0

Question: And the “Plant response rating, Barnyardgrass” value [2, 21]?
Answer: 90

Question: And the “Plant response rating, Foxtail, Giant” value [3, 23]?
Answer: 60

Question: What about the “Plant response rating, Foxtail, Giant” value [3, 21] of the same compound?
Answer: 100

Question: What about the “Plant response rating, Kochia” value [4, 23] of the same compound?
Answer: 10

Question: What about the “Plant response rating, Kochia” value [4, 21] of the same compound?
Answer: 60

Question: What about the “Plant response rating, Pigweed” value [5, 23] of the same compound?
Answer: 100

Question: And the “Plant response rating, Pigweed” value [5, 21]?
Answer: 100

Question: And the “Plant response rating, Ragweed” value [6, 23]?
Answer: 0

Question: And the “Plant response rating, Ragweed” value [6, 21]?
Answer: 0

Question: What about the “Ryegrass, Italian plant response rating” value ([7]; 31 g ai/ha) of the same compound?
Answer: 0

Question: And the “Ryegrass, Italian plant response rating” value ([7]; 125 g ai/ha)?
Answer: 30

Question: And the “Barnyardgrass plant response rating” value ([8]; 31 g ai/ha)?
Answer: 10

Question: And the “Barnyardgrass plant response rating” value ([8]; 125 g ai/ha)?
Answer: 40

Question: What about the “Blackgrass plant response rating” value ([9]; 31 g ai/ha) of the same compound?
Answer: 0

Question: And the “Blackgrass plant response rating” value ([9]; 125 g ai/ha)?
Answer: 40

Question: What about the “Corn plant response rating” value ([10]; 31 g ai/ha) of the same compound?
Answer: 10

Question: And the “Corn plant response rating” value ([10]; 125 g ai/ha)?
Answer: 20

Question: And the “Galium plant response rating” value ([11]; 31 g ai/ha)?
Answer: 40

Question: And the “Galium plant response rating” value ([11]; 125 g ai/ha)?
Answer: 80

Question: And the “Foxtail, Giant plant response rating” value ([12]; 31 g ai/ha)?
Answer: 10

Question: And the “Foxtail, Giant plant response rating” value ([12]; 125 g ai/ha)?
Answer: 50

Question: And the “Kochia plant response rating” value ([13]; 31 g ai/ha)?
Answer: 80

Question: And the “Kochia plant response rating” value ([13]; 125 g ai/ha)?
Answer: 100

Question: And the “Pigweed plant response rating” value ([14]; 31 g ai/ha)?
Answer: 90

Question: And the “Pigweed plant response rating” value ([14]; 125 g ai/ha)?
Answer: 100

Question: And the “Ragweed plant response rating” value ([15]; 31 g ai/ha)?
Answer: 0

Question: What about the “Ragweed plant response rating” value ([15]; 125 g ai/ha) of the same compound?
Answer: 20

Question: What about the “Wheat plant response rating” value ([16]; 31 g ai/ha) of the same compound?
Answer: 0

Question: What about the “Wheat plant response rating” value ([16]; 125 g ai/ha) of the same compound?
Answer: 20

Question: What about the “Plant response rating, Barnyardgrass” value [17] of the same compound?
Answer: 65

Question: What about the “Plant response rating, Ducksalad” value [18] of the same compound?
Answer: 80

Question: And the “Plant response rating, Rice” value [19]?
Answer: 20

Question: What about the “Plant response rating, Sedge, Umbrella” value [20] of the same compound?
Answer: 90

Source: patent publication US11053204B2, “Pyrimidinyloxy benzene derivatives as herbicides” (FMC Corporation, priority 2015, dated 2021)
